The source of these data is ChEMBL document CHEMBL3045387, “Synthesis and Fungicidal Activity of New 1, 3, 2-Oxazaphospholidine 2-Sulfides” (1994).

The structures appear in SMILES notation.

Holding throughout (format): functional
Holding throughout (conditions): 96 h, read-out: GI

Assay [1] concerns Pythium. Briefly: Antimicrobial activity against Pythium sp. assessed as inhibition of mycelial growth on potato dextrose agar at 100 ppm at 27 degC measured after 4 days.
Assay [2] deals with Corticium. As to the kind of experiment: Antimicrobial activity against Corticium sp. assessed as inhibition of mycelial growth on potato dextrose agar at 100 ppm at 27 degC measured after 4 days.
Assay [3] concerns Corticium. As to the kind of experiment: Antimicrobial activity against Corticium sp. assessed as inhibition of mycelial growth on potato dextrose agar at 1000 ppm at 27 degC measured after 4 days.
The subject of assay [4] is Pythium. Briefly: Antimicrobial activity against Pythium sp. assessed as inhibition of mycelial growth on potato dextrose agar at 1000 ppm at 27 degC measured after 4 days.

Consider `Cc1ccc(C(C)C)c(OP2(=S)N[C@@H](C(C)C)CO2)c1` (some centres undefined), for which the inhibition of growth at 100 ppm amounted to 29.8% in assay [1] and 18.7% in assay [2].

With `CC(C)c1ccc(C=O)cc1` [CUMINALDEHYDE], the inhibition of growth at 1000 ppm in assay [3] and in assay [4] was 100% throughout. The inhibition of growth at 100 ppm turned out to be 14% in assay [1] and 22% in assay [2].

Turning to `COC(=O)/C=C/c1ccccc1` [E-METHYL CINNAMATE], the inhibition of growth at 1000 ppm in assay [3] and in assay [4] was 100% each time. Besides, the values for the inhibition of growth at 100 ppm in assay [1] and in assay [2] were 66% and 54%, respectively.

As for `C=CCc1ccc(OP2(=S)N[C@@H](CC(C)C)CO2)c(OC)c1` (some centres undefined), the inhibition of growth at 100 ppm in assay [1] turned out to be 9.9%; in assay [2] it was 0.8%.

For the molecule `Cc1ccc(C(C)C)c(O)c1` [THYMOL], the inhibition of growth at 1000 ppm in assay [3] and in assay [4] was 100% in each case. The figures for the inhibition of growth at 100 ppm in assay [1] and in assay [2] were 93% and 71%, respectively.

With `CC[C@H](C)[C@H]1COP(=S)(Oc2ccc(C)cc2C(C)C)N1` (some centres undefined), the inhibition of growth at 100 ppm in assay [1] is 12.5%; in assay [2], 0%.

On to `CC[C@H](C)[C@H]1COP(=S)(OCCC(C)CCC=C(C)C)N1` (some centres undefined), for which the inhibition of growth at 100 ppm in assay [1] and in assay [2] was 0% throughout.

For `CC12CCC(CC1=O)C2(C)C` (centres undefined) [CAMPHOR], the inhibition of growth at 1000 ppm came out at 22.1% in assay [3] and 9.3% in assay [4]. Moreover, the inhibition of growth at 100 ppm in assay [1] was determined as 0%; in assay [2] it was 0.4%.

As to `Cc1ccc(O)c(C(C)C)c1` [ISOTHYMOL], the inhibition of growth at 1000 ppm in assay [3] and in assay [4] was 100% each time. In addition, the inhibition of growth at 100 ppm was found to be 94.3% in assay [1] and 72.4% in assay [2].

Turning to `CC(C)=CCCC(C)CCO` (centres undefined) [CITRONELLOL], the inhibition of growth at 1000 ppm in assay [3] and in assay [4] was 100% throughout. Besides, the inhibition of growth at 100 ppm was 68.9% in assay [1] and 23.9% in assay [2].

Consider `CC1(C)C2CC=C(CO)C1C2` (centres undefined) [MYRTENOL], for which the inhibition of growth at 1000 ppm in assay [3] and in assay [4] was 100% each time. The inhibition of growth at 100 ppm stood at 41% in assay [1] and 56% in assay [2].

As for `CC(C)=CCC/C(C)=C/COP1(=S)N[C@@H](C)CO1` (some centres undefined), the figures for the inhibition of growth at 100 ppm in assay [1] and in assay [2] were 20.2% and 22.7%, respectively.

As to `Cc1ccc(OP2(=S)N[C@@H](C(C)C)CO2)c(C(C)C)c1` (some centres undefined), the inhibition of growth at 100 ppm in assay [1] was 24.3%; in assay [2], 0%.

With `CC1=CCC2CC1C2(C)C` (stereo not drawn) [ALPHA-PINENE], the inhibition of growth at 1000 ppm in assay [3] worked out at 46.3%; in assay [4], 0%. Besides, the results for the inhibition of growth at 100 ppm in assay [1] and in assay [2] were 4% and 0.8%, respectively.

As to `CC[C@H](C)[C@H]1COP(=S)(OC/C=C(\C)CCC=C(C)C)N1` (some centres undefined), the inhibition of growth at 100 ppm in assay [1] and in assay [2] was 0% in each case.

Take `Cc1ccc(OP2(=S)N[C@@H](C)CO2)c(C(C)C)c1` (some centres undefined): the inhibition of growth at 100 ppm in assay [1] is 10.8%; in assay [2] it was 31.7%.

For the molecule `C=CCc1ccc(O)c(OC)c1` [EUGENOL], the inhibition of growth at 1000 ppm in assay [3] and in assay [4] was 100% in each case. Also, the inhibition of growth at 100 ppm was 92.7% in assay [1] and 67.6% in assay [2].

For `CC1=CC[C@@H](C(C)(C)O)CC1` [ALPHA-TERPINEOL], the inhibition of growth at 1000 ppm in assay [3] and in assay [4] was 100% throughout. The inhibition of growth at 100 ppm amounted to 11.2% in assay [1] and 71.8% in assay [2].

For the molecule `Cc1ccc(C(C)C)c(OP2(=S)N[C@@H](C)CO2)c1` (some centres undefined), the inhibition of growth at 100 ppm in assay [1] and in assay [2] was 0% each time.

As to `CC(C)=CCC/C(C)=C/COP1(=S)N[C@@H](C(C)C)CO1` (some centres undefined), the inhibition of growth at 100 ppm amounted to 68.2% in assay [1] and 68.6% in assay [2].

`C=C1CCC2CC1C2(C)C` (stereo not drawn) [BETA-PINENE]: the inhibition of growth at 1000 ppm in assay [3] came to 16.3%; in assay [4], 2.2%. In addition, the inhibition of growth at 100 ppm was found to be 0% in assay [1] and 1.2% in assay [2].

As to `Cc1ccc(C(C)C)cc1` [P-CYMENE], the results for the inhibition of growth at 1000 ppm in assay [3] and in assay [4] were 13.6% and 0.2%, respectively. Moreover, the inhibition of growth at 100 ppm worked out at 0% in assay [1] and 14.4% in assay [2].

Consider `CC(=O)CCc1ccccc1` [BENZYLACETONE], for which the inhibition of growth at 1000 ppm in assay [3] and in assay [4] was 100% throughout. Moreover, the inhibition of growth at 100 ppm in assay [1] was 24.5%; in assay [2], 30.5%.

For `Cc1ccc(OP2(=S)N[C@@H](Cc3ccccc3)CO2)c(C(C)C)c1` (some centres undefined), the results for the inhibition of growth at 1000 ppm in assay [3] and in assay [4] were 36% and 58.2%, respectively. Also, the inhibition of growth at 100 ppm in assay [1] turned out to be 9.4%; in assay [2], 15.3%.

`CC12CCC(CC1)C(C)(C)O2` [EUCALYPTOL]: the inhibition of growth at 1000 ppm in assay [3] worked out at 0%; in assay [4], 0.4%. Further, the inhibition of growth at 100 ppm in assay [1] was 0%; in assay [2] it was 8.3%.

Consider `CC(C)=CCCC(C)CCOP1(=S)N[C@@H](C(C)C)CO1` (some centres undefined), for which the values for the inhibition of growth at 100 ppm in assay [1] and in assay [2] were 87.3% and 42.6%, respectively.

Turning to `CC(C)=CCC/C(C)=C/CO` [GERANIOL], the inhibition of growth at 1000 ppm in assay [3] and in assay [4] was 100% in each case. The inhibition of growth at 100 ppm turned out to be 63.3% in assay [1] and 71.8% in assay [2].

For the molecule `Cc1ccc(C(C)C)c(OP2(=S)N[C@@H](CC(C)C)CO2)c1` (some centres undefined), the results for the inhibition of growth at 1000 ppm in assay [3] and in assay [4] were 77.1% and 36.1%, respectively. Moreover, the inhibition of growth at 100 ppm turned out to be 19.8% in assay [1] and 36.8% in assay [2].

Turning to `CC(C)=CCCC(C)CCOP1(=S)N[C@@H](Cc2ccccc2)CO1` (some centres undefined), the inhibition of growth at 1000 ppm in assay [3] worked out at 66.8%; in assay [4], 30.8%. The inhibition of growth at 100 ppm in assay [1] is 1.6%; in assay [2] it was 21.1%.

For the molecule `C=CCc1ccc(OP2(=S)N[C@@H]([C@@H](C)CC)CO2)c(OC)c1` (some centres undefined), the inhibition of growth at 100 ppm is 41.7% in assay [1] and 25.3% in assay [2].

Turning to `CC[C@H](C)[C@H]1COP(=S)(Oc2cc(C)ccc2C(C)C)N1` (some centres undefined), the results for the inhibition of growth at 100 ppm in assay [1] and in assay [2] were 3.7% and 0%, respectively.

Regarding `CC(C)=CCCC(C)CCOP1(=S)N[C@@H](CC(C)C)CO1` (some centres undefined), the inhibition of growth at 1000 ppm in assay [3] is 82.9%; in assay [4], 53.9%. The results for the inhibition of growth at 100 ppm in assay [1] and in assay [2] were 24.7% and 26.7%, respectively.

For `Cc1ccc(OP2(=S)N[C@@H](CC(C)C)CO2)c(C(C)C)c1` (some centres undefined), the inhibition of growth at 1000 ppm in assay [3] came to 64.3%; in assay [4], 58.2%. Further, the results for the inhibition of growth at 100 ppm in assay [1] and in assay [2] were 11.7% and 14.6%, respectively.

In the case of `CC(C)=CCCC(C)CCOP1(=S)N[C@@H](C)CO1` (some centres undefined), the inhibition of growth at 100 ppm in assay [1] and in assay [2] was 0% in each case.

With `CC(C)=CCC/C(C)=C/COP1(=S)N[C@@H](CC(C)C)CO1` (some centres undefined), the inhibition of growth at 1000 ppm was found to be 97.9% in assay [3] and 100% in assay [4]. Besides, the inhibition of growth at 100 ppm in assay [1] is 35.4%; in assay [2], 26.7%.

As to `Cc1ccc(C(C)C)c(OP2(=S)N[C@@H](Cc3ccccc3)CO2)c1` (some centres undefined), the inhibition of growth at 1000 ppm in assay [3] was 41%; in assay [4], 46%. In addition, the inhibition of growth at 100 ppm in assay [1] was 19.8%; in assay [2], 33.8%.

For the molecule `CC(C)=CCC/C(C)=C/COP1(=S)N[C@@H](Cc2ccccc2)CO1` (some centres undefined), the figures for the inhibition of growth at 1000 ppm in assay [3] and in assay [4] were 60.4% and 16.9%, respectively. The inhibition of growth at 100 ppm in assay [1] came to 4%; in assay [2] it was 28.5%.

Take `CC1=CCC(O)(C(C)C)CC1` (centres undefined) [TERPINEOL]: the inhibition of growth at 1000 ppm in assay [3] and in assay [4] was 98.3% throughout. Besides, the values for the inhibition of growth at 100 ppm in assay [1] and in assay [2] were 7.1% and 0%, respectively.

As to `CC1(C)C2CCC1(C)C(O)C2` (centres undefined) [BORNEOL], the inhibition of growth at 1000 ppm in assay [3] and in assay [4] was 100% throughout. Besides, the inhibition of growth at 100 ppm in assay [1] stood at 21.1%; in assay [2], 27.7%.

`C=CCc1ccc(OP2(=S)N[C@@H](C(C)C)CO2)c(OC)c1` (some centres undefined): the inhibition of growth at 100 ppm amounted to 53.9% in assay [1] and 37.5% in assay [2].

In the case of `C=CC(C)(O)CCC=C(C)C` (centres undefined) [LINALOOL], the inhibition of growth at 1000 ppm in assay [3] amounted to 93.9%; in assay [4], 67.4%. Besides, the figures for the inhibition of growth at 100 ppm in assay [1] and in assay [2] were 21.3% and 46.9%, respectively.
